The source of these data is patent publication US20100278875A1, “PROSTAGLANDIN E2 (PGE2) AS AN ADJUVANT IN MONOCLONAL ANTIBODY GENERATION” (priority 2006, published 2010).

One experiment relates to nominal immunogen (AgX). The experiment can be described thus: Antibody titers in Balb/c mice against a nominal immunogen (AgX) in the presence or absence of PGE2. It counts as in vivo. To be noted: following 2 injections, versus PBS. On the procedure:
(§1) To generate antibody against ovalbumin (OVA), Balb/c mice were immunized with 25 ug of OVA emulsified in adjuvant. To test the effect of PGE2, the mice were injected with 1 nmol PGE2 intraperitoneally (i.p.) 3 hours prior to immunization, and again at 24 and 48 hours post immunization. For the control group, the mice were injected (i.p.) with an equal volume of PBS 3 hours prior to immunization. The mice were boosted with 25 ug OVA on Day 14 (i.p.) and Day 28 (subcutaneously). Anti-OVA titers were determined on Day 27 and Day 35.
(§2) To assess the effect of PGE2 on generating antibodies against difficult targets, a nominal immunogen (AgX) known to be difficult to raise an antibody response was used. Briefly, Balb/c mice were immunized following the same schedule outlined above with either 25 ug of OVA or AgX and titered on Day 27 following 2 i.p. injections. […] Therefore, PGE2 enhances immune responses in Balb/c mice and may be used to shorten immunization time lines.
Given the difficult nature of this immunogen to generate antibodies against, this is a significant increase. Therefore, PGE2 can be used in Balb/c mice to enhance immune responses not only to strong immunogens, but also to difficult/nominal immunogens.

Another experiment has as its system ovalbumin (OVA). The experiment can be described thus: Anti-OVA antibody titers in Balb/c mice immunized with OVA in the presence or absence of PGE2. It counts as in vivo. On the procedure: as §1, §2

For `CCCCC[C@H](O)/C=C/[C@H]1[C@H](O)CC(=O)[C@@H]1C/C=C\CCCC(=O)O` [PGE2, Prostaglandin E2], the “increase of anti-AgX titers” value in the experiment with nominal immunogen (AgX) is on record as 2-3 fold. Further, the “effect on anti-OVA titers (in words)” value was “significantly enhanced anti-OVA titers” with ovalbumin (OVA) (Table 1 experiment, Day 27 and Day 35); “enhanced anti-OVA titers” in the experiment on ovalbumin (OVA) (Table 2 experiment, following only 2 immunogen injections).
